Source: EP4389150A1, “CONJUGATE COMPOUNDS AND THEIR USE IN CANCER TREATMENT AND DIAGNOSIS” (Technische Universität München, priority 2022, dated 2024)
Entries after “also recorded” stand apart in the source; their conditions may differ.

What was measured:
[1] = tested on: PC3-PIP cells / PC3-flu cells; assay: Fluorescence microscopy of Ruc delivery in PSMA+ and PSMA- cells; type: cell-based; settings: PSMA+ PC3-PIP versus PSMA- PC3-flu cells (Figure 4A)
Description: For microscopic analysis, black clear-bottom 96 well cell culture plates with cover-glass bottom (µ plate 96 well black; ibidi) were coated with poly-L-lysine (0.01% (w/v) in sterile water). Cells were seeded at a density of 20-40,000 cells/well and cultured for 24 h at 37 °C. Subsequently, the PSMA ligands (1 µM; 100 µL/well) were directly added with or without blocking and ligand treatment was accomplished for 5, 60 or 180 min at 37 °C, while in case of GSH preincubation, GSH-OEt (10 mM; 100 µL/well) was applied for 1 h at 37 °C prior to ligand treatment. For the latter case, the PSMA ligands (1 µM, 100 µL/well) were added after removal of the GSH containing medium and the incubation time was 60 min at 37 °C. Afterwards, cells were washed with PBS (2×) and fixed with 4% (w/v) PFA in PBS for 8 min at RT (pH 7.4, 100 µL/well). CellMask™ Green Plasma Membrane Stain was used to stain the cell membrane, whereas for cell nuclei DRAQ5™ was used. Before imaging, cells were washed with PBS (3×) and mounted in PBS (150 µL/well). Finally, cells were imaged using an EVOS M7000 microscope (Thermo Fisher Scientific).

mCRPC = settings: TRITON2 trial, Abida et al., 2020; cited from earlier work
PSMA+ (LNCaP) = assay: Cell viability (Alamar Blue), monotherapy, PSMA+ cells; type: cell-based; settings: 72h
Description: (§1) Black, clear-bottom 96 well culture plates were coated with poly-L-lysine. Afterwards, the plates were washed with PBS (1 × 100 µL), cells were seeded (2000 cells/well for PC3, 10000 cells/well for LNCaP), and cultured for 24 h (PC3) or 48 h (LNCaP) at 37 °C. The culture medium was removed, and new culture medium containing 10 mM GSH-OEt was added and incubated for 1 h at 37 °C. After removal of the GSH-OEt medium, new culture medium containing the PSMA-Ruc conjugates was added. After 72 h of incubation at 37 °C, cells were treated with Alamar Blue for visualization of cell viability. […] Each data points represents one biological replicate.

PSMA- (PC3) = assay: Cell viability (Alamar Blue), monotherapy, PSMA- cells; type: cell-based; settings: PC3, 20 µM, 72h, pretreated with 10 mM GSH; read-out: cell viability compared to untreated cells
Description: as §1

[2] = Wilson et al. 2019; cited from earlier work
late stage mCRPC = late stage mCRPC patients, versus 11.3 months with standard therapy; Sartor et al., 2021; cited from earlier work
LNCaP cells = assay: Binding and internalization (cell uptake) of 68Ga-labelled PSMA ligands in LNCaP cells; type: cell-based
Description: To determine ligand internalization, LNCaP cells were seeded in a 96 V-bottom well plate at a density of 100,000 cells/well in 5% BSA (w/v)/RPMI medium (100 µL/well) and incubated for 30 min at 37 °C. Afterwards, solutions (25 µL/well) of either 5% BSA (w/v)/RPMI medium or of 2-PMPA (final concentration: 10 µM) in 5% BSA (w/v)/RPMI medium for blockade were added. Then, a solution of the ^68Ga-labeled PSMA-ligand (25 µL/well; 0.4 nM final concentration; AM = 26-30 MBq/nmol) was added to all wells, and the cells were incubated for 5, 15, 30, and 60 min, respectively, at 37 °C. Hereby, each time point was performed in triplicates and each experiment was repeated three times. The internalization process was terminated by placing the plate for 5 min on ice. The free radioligand was obtained by centrifugation of the plate at 600 g for 3 min and removal of the supernatant. Each well was then washed with ice-cold PBS and the fractions of the first two steps were combined. For removal of cell-bound PSMA-ligand, the cells were treated in a next step with ice-cold 2-PMPA-solution (10 µM in PBS; 150 µL/well; 15 min on ice), centrifuged (600 g, 3 min), and washed with ice-cold PBS (150 µL/well). The fractions were again combined. For the analysis of internalized radioligand, the fractions of a 1.0 N NaOH (150 µL/well; 10 min on ice) treatment as well as a concomitant washing step with 1.0 N NaOH (150 µL/well) were pooled. Free, surface bound, and internalized activity, respectively, was measured in a γ-counter.

PSMA = molecular target: T1, PSMA (Homo sapiens, UniProt Q04609); assay: IC50 determination by competition with [68Ga]-PSMA-617 on LNCaP cells; type: binding; settings: [68Ga]-PSMA-617 0.4 nM, 60 min on ice, natGa-labelled ligands
T1 construct: endogenous in cells; host or cells: LNCaP cells
T1 sequence (Q04609 whole entry): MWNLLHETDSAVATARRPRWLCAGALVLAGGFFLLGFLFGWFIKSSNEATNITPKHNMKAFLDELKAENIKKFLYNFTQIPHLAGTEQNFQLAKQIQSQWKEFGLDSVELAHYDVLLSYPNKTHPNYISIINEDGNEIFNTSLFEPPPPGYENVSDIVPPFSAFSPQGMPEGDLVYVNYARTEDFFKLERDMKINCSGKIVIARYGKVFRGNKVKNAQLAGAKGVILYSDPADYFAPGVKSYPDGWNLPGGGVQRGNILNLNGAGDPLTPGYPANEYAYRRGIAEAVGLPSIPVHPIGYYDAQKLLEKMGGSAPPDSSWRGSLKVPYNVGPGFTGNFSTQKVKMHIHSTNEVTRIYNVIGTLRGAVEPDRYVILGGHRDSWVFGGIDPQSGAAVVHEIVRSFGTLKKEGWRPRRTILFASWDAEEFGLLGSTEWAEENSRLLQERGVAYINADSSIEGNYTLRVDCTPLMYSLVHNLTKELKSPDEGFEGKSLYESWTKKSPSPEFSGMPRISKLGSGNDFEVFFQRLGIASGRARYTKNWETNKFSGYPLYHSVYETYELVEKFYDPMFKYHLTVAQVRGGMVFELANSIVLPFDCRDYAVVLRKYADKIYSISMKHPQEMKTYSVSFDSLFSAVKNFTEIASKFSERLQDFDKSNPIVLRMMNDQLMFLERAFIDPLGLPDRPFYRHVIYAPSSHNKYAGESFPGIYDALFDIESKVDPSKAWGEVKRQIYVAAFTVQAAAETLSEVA
Description: In the meantime, dilution series of the compounds were prepared in 1% BSA (w/v)/HBSS in a separate 96 U-bottom deep well plate ranging from 12 µM to 153.6 pM in 1:5 dilution steps. Next, solutions (25 µL/well) of either 1% BSA (w/v)/HBSS (control) or of the respective dilution series were transferred to the LNCaP cells containing plate. Hereby, each concentration was pipetted in triplicates and each experiment was repeated three times. Subsequently, [^68Ga]-PSMA-617 (25 µL/well; 0.4 nM final concentration; AM = 26-30 MBq/nmol) in 1% BSA (w/v)/HBSS was added to all wells and the plate was incubated for 60 min on ice. Afterwards, the experiment was terminated by centrifugation at 600 g for 3 min and removal of the supernatant. The cells were then washed with ice-cold HBSS (150 µL/well), centrifuged (600 g, 3 min), and the supernatant as well as the washing fraction were combined, representing the amount of free, unbound radioligand. Bound radioligand was obtained by lysis of the cells with 1.0 N NaOH (150 µL/well; 10 min on ice). Afterwards, the plate was washed a second time with 1.0 N NaOH (150 µL/well). Hereby, the washing step was combined with the NaOH fraction. The quantification of bound and free radioligand was finally accomplished via measuring the samples in a γ-counter.

Serum stability = type: in vitro ADME; settings: 37 °C
Description: For serum stability analysis, 13.5 µL human serum were mixed with 1.5 µL of an aqueous solution of the test compound (200 µM final concentration) and incubated at 37 °C for 0.5, 1, 2, and 24 h, respectively. Afterwards, 25.0 µL MeCN were added, the suspension was centrifuged (14,000 rpm, 30 min, 4 °C), the supernatant was recovered, and finally analyzed by HPLC-ESI-MS using a linear elution gradient from 10 to 95% (v/v) MeCN/0.1% (v/v) TFA in water/0.1% (v/v) TFA for 15 min.

[3] = Lipophilicity, n-octanol/PBS distribution coefficient; type: physicochemical; settings: pH 7.4
Description: Lipophilicity of the conjugates was determine after radiolabeling with ^68Ga. The PSMA ligand (0.80 MBq) was dissolved in PBS (500 µL/pH 7.4) in a reaction vial (1.5 mL; n = 10). Afterwards, n-octanol was added (500 µL) and the mixture was rigorously vortexed for 3 min. Subsequent centrifugation (Biofuge 15, Heraus Sepatech, Osterode, Germany) at 13,000 rpm for 5 min led to a phase separation. After measuring 100 µL of each phase in a γ-counter, the distribution coefficient (logD(O/PBS)) was calculated with Microsoft Excel.

## CNCc1ccc(-c2[nH]c3cc(F)cc4c3c2CCNC4=O)cc1 [Ruc, Rucaparib]
[1]
  localization of Ruc fluorescence: localized in the cell nucleus of PSMA-expressing and non-expressing cells non-selectively; also recorded: non-selective uptake in PSMA+ and PSMA- cells
mCRPC
  patients with a partial response: 30-40%
  patients with an objective response: 44%
PSMA+ (LNCaP); Homo sapiens, pretreated with 10 mM GSH, read-out: cell viability compared to untreated cells
  viability at 20 µM: 30 to 50%
PSMA- (PC3)
  viability at 20 µM: 30 to 50%

## O=C(c1cc(Cc2n[nH]c(=O)c3ccccc23)ccc1[18F])N1CCN(C(=O)C2CC2)CC1 [^18F-Olaparib]
[2]
  typical biodistribution of PARPi: low tumor uptake and high gut uptake

## O=C([O-])CN1CCN(CC(=O)[O-])CCN(CC(=O)NCC2CCC(C(=O)N[C@@H](Cc3ccc4ccccc4c3)C(=O)NCCCC[C@H](NC(=O)N[C@@H](CCC(=O)O)C(=O)O)C(=O)O)CC2)CCN(CC(=O)[O-])CC1.[177Lu+3] (stereo partly shown) [^177Lu-PSMA-617]
Late stage mCRPC
  median overall survival: 15.3 months

## CN(Cc1ccc(-c2[nH]c3cc(F)cc4c3c2CCNC4=O)cc1)C(=O)CCCCCCC(=O)NCCCC[C@@H](NC(=O)CCC(C(=O)O)N1CCN(CC(=O)O)CCN(CC(=O)O)CCN(CC(=O)O)CC1)C(=O)N[C@H](CC(=O)O)C(=O)NCCC(=O)NC[C@H]1CC[C@H](C(=O)N[C@@H](Cc2ccc3ccccc3c2)C(=O)NCCCC[C@H](NC(=O)N[C@@H](CCC(=O)O)C(=O)O)C(=O)O)CC1 (stereo partly drawn) [Conjugate 13, DOTAGA-n-Lys(Ruc-Sub)-n-Asp-β-Ala-TXA-L-Nal-KuE]
LNCaP cells
  % bound of total applied dose: 10.8 ± 2.07%
PSMA
  IC50: 670 ± 90 pM
Serum stability; 2 hours
  stable (intact) after incubation in human serum: 94%
Serum stability; 24 hours
  intact after incubation in human serum: 89%
[3]
  logD: -2.58 ± 0.05
PSMA+ (LNCaP); 20 µM
  cytotoxic effects: did not show cytotoxic effects
